Measurements reported in US20120329721A1, “MEANS FOR PREVENTING AND TREATING CELLULAR DEATH AND THEIR BIOLOGICAL APPLICATIONS” (CHIESI FARMACEUTICI S.P.A., priority 2003, published 2012).
Where two headings read alike, the source gives them in different places. Starred links: 1 amine or outer side, 2 acyl side, 3 side chain; linkers in the order of their positions; H or OH if unused. Positions of bridges follow the written chain, without caps; N, C: chain ends. Non-standard residues stand in square brackets, D forms with d. Residues, ends and D or L forms follow the SMILES beside them. Chains are numbered I, II in the order given. *: point of attachment. Actinocin(9to1) = Cc1c2oc3c(C)ccc(C(=O)[*:1])c3nc-2c(C(=O)[*:2])c(N)c1=O; X1 = COC(=O)C[C@H](N*)C(=O)COc1c(F)cccc1F; Sta = CC(C)C[C@H](N)[C@@H](O)CC(=O)O; Quinaldoyl = O=C(c1ccc2ccccc2n1)*; NMeV = CN[C@H](C(=O)O)C(C)C; Isovaleryl = CC(C)CC(=O)*; Cbz = O=C(OCc1ccccc1)*; Sar = CNCC(=O)O; CH2F = FC*

Assays:
primary cortical neurons [1] = type: cell-based
[2] = biological target: T1, human recombinant caspase-2 (Homo sapiens, UniProt P42575); test: In vitro VDVAD-AMC cleavage by recombinant caspase-2; type: biochemical; conditions: inhibitor 2 μM, 50 μM VDVAD-AMC, caspase-2 125 U, 30 min at 37° C.
T1 construct: purchased BIOMOL
T1 sequence (P42575 170-325 limits assumed): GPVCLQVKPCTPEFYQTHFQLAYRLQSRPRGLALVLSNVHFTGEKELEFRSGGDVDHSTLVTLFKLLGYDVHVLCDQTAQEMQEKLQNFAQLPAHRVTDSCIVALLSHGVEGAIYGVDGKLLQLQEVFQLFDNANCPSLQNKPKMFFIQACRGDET
T1 sequence (P42575 348-452 limits assumed): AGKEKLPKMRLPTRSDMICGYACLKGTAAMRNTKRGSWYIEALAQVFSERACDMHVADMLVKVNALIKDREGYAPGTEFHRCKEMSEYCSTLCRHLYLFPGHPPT
Experimental: Activity of human recombinant caspase-2 (BIOMOL QuantiZyme™ Assay System) was assessed in 100 μl assay buffer (50 mM HEPES, pH 7.4, 100 mM NaCl, 0.1% CHAPS, 10 mM DTT, 1 mM EDTA, 10% glycerol).

primary cortical neurons [3] = test: Real-time FC and fixed-time FM detection of ΔΨm and PMP in neurons treated with neurotoxic molecules; type: cell-based, mouse; conditions: for ΔΨm and PMP state of non-trypsinized neurons (FM): FM co-detection JC-1/7-AAD, 45 minutes (mClCCP 100 μM, 30 min)
Jurkat cells = test: VP16-induced cell death of Jurkat cells, cytoprotection assay; type: cell-based, human; conditions: VP16 10 μM, 7-8 hrs; inhibitors 50 μM
[4] = test system: neonatal ischemic brain injury in 7 day-old rats
[5] = SD model, compound added at the start of SD at the concentration of column '[ ], μM' (first concentration/target where two are printed)

## Cc1c(C)c2c(c(C)c1O)CCC(C)(C(=O)O)O2 (stereo not drawn) [Trolox ®]
Primary cortical neurons [1]; [5]
  Survival: No

## COc1cccc(-c2cc(=O)c3ccccc3o2)c1N [PD 98059]
Primary cortical neurons [1]; [5]
  Survival: No

## N[C@@H](CCC(=O)N[C@@H](CS)C(=O)NCC(=O)O)C(=O)O [glutathion]
Primary cortical neurons [1]; [5]
  Survival: No

## CCCCCCCCCCC1=C(C)C(=O)C(OC)=C(OC)C1=O [Decyl-Ubiquinone]
Primary cortical neurons [1]; [5]
  Survival: No

## CC(=O)OCOC(=O)CN(CC(=O)OCOC(C)=O)c1ccccc1OCCOc1ccccc1N(CC(=O)OCOC(C)=O)CC(=O)OCOC(C)=O [BAPTA-AM, acetoxymethyl ester of 1,2-bis(2-aminophenoxy)ethane-N,N,N′,N′-tetraacetic acid]
Primary cortical neurons [1]
  Survival: No

## CC(=O)N[C@H](C(=O)N[C@@H](CC(=O)O)C(=O)N[C@H](C(=O)N[C@@H](C)C(=O)N[C@H](C=O)CC(=O)O)C(C)C)C(C)C [Ac-VDVAD-Cho] (Ac-VDVAD-aldehyde)
[2]
  inhibition of VDVAD-AMC cleavage by recombinant caspase-2: blocked

## Cn1cnc(N)c2ncnc1-2 [3-Methyladenine]
Primary cortical neurons [1]; [5]
  Survival: No

## CC(=O)N[C@@H](CS)C(=O)O [N-Acetyl-Cystein]
Primary cortical neurons [1]; [5]
  Survival: No

## O=S(=O)([O-])c1cc(N=C=S)ccc1C=Cc1ccc(N=C=S)cc1S(=O)(=O)[O-].[Na+].[Na+] [DIDS, 4,4′-Diisothiocyanastilbene-2,2′-disulfonic acid disodium salt]
Primary cortical neurons [1]; [5]
  Survival: No

## N#CC(C#N)=NNc1cccc(Cl)c1 [mClCCP, carbonyl cyanide m-chlorophenylhydrazone]
Primary cortical neurons [3]
  ΔΨm and PMP state of non-trypsinized neurons (FM): induces ΔΨm disruption
Primary cortical neurons [3]; real-time FC, 100 μM
  time of treatment at which ΔΨm loss of neuronal population is maximal: 2 min

## Cc1c2oc3c(C)ccc(C(=O)N[C@@H]4C(=O)N[C@H](C(C)C)C(=O)N5CCC[C@H]5C(=O)N(C)CC(=O)N(C)[C@@H](C(C)C)C(=O)O[C@@H]4C)c3nc-2c(C(=O)N[C@@H]2C(=O)N[C@H](C(C)C)C(=O)N3CCC[C@H]3C(=O)N(C)CC(=O)N(C)[C@@H](C(C)C)C(=O)O[C@@H]2C)c(N)c1=O [Actinomycin D] (I: T[dV]P[Sar][NMeV] / II: T[dV]P[Sar][NMeV]; ester I:1-I:C, II:1-II:C; linker I:N-II:N via Actinocin(9to1))
Jurkat cells
  terminal nuclear alterations and PMP in VP16-treated Jurkat cells: prevent neither ΔΨm loss nor PMP
  ΔΨm loss in VP16-treated Jurkat cells: prevent neither ΔΨm loss nor PMP
Primary cortical neurons [1]
  survival / protection of SD-neurons against cell death (apoptosis hallmarks overall): promote survival
Primary cortical neurons [1]; [5]
  Survival: Yes

## O=c1c(-c2ccc(O)cc2)coc2cc(O)cc(O)c12 [Genistein]
Primary cortical neurons [1]
  Survival: No

## C[C@@H]1C[C@@H]([C@H](O)CC2CC(=O)NC(=O)C2)C(=O)[C@@H](C)C1 [Cycloheximide]
Jurkat cells
  terminal nuclear alterations and PMP in VP16-treated Jurkat cells: prevent neither ΔΨm loss nor PMP
  ΔΨm loss in VP16-treated Jurkat cells: prevent neither ΔΨm loss nor PMP
Primary cortical neurons [1]
  survival / protection of SD-neurons against cell death (apoptosis hallmarks overall): promote survival
Primary cortical neurons [1]; [5]
  Survival: Yes

## CO/C1=C\C(C)=C\[C@@H](C)[C@@H](O)[C@@H](C)C/C(C)=C/C=C/[C@H](OC)[C@@H]([C@@H](C)[C@@H](O)[C@H](C)[C@@]2(O)C[C@@H](O)[C@H](C)[C@@H](C(C)C)O2)OC1=O [Bafilomycin A1]
Primary cortical neurons [1]; [5]
  Survival: No

## CN1CC=C(c2ccccc2)CC1 [MPTP, 1-methyl-4-phenyl-1,2,3,6-tetrahydropyridine]
Primary cortical neurons [3]
  ΔΨm and PMP state of non-trypsinized neurons (FM): most neurons are ΔΨm low without any sign of PMP
Primary cortical neurons [3]; real-time FC, after 15 minutes of treatment
  ΔΨm low neurons: 49.6%

## CC(=O)Oc1ccccc1C(=O)O [Aspirin]
Primary cortical neurons [1]; [5]
  Survival: No

## Oc1ccc(-c2nc(-c3ccncc3)c(-c3ccc(F)cc3)[nH]2)cc1 [SB 202190]
Primary cortical neurons [1]; [5]
  Survival: No

## CCO [ethanol]
Primary cortical neurons [3]
  ΔΨm and PMP state of non-trypsinized neurons (FM): induces a rapid PMP
Primary cortical neurons [3]; real-time FC, after 5 minutes
  PMP: 98%
  ΔΨm loss: 75%

## CCC(=C/[C@H](C)C/C=C/C(C)=C/[C@@H](C)C(=O)[C@@H](C)[C@H](O)[C@@H](C)C/C(C)=C/C(=O)O)/C=C/[C@@H]1OC(=O)C=C[C@@H]1C [Leptomycin B]
Primary cortical neurons [1]; [5]
  Survival: No

## CC[C@H](CO)Nc1nc(NCc2ccccc2)c2ncn(C(C)C)c2n1 [Roscovitine]
Primary cortical neurons [1]
  Survival: No

## N-benzyloxycarbonyl-Phe-Ala-fluoromethylketone [z-FA-fmk]
Primary cortical neurons [1]; [5]
  Survival: No

## O=C(NC(Cc1ccccc1)C(=O)NC(Cc1ccccc1)C(=O)CF)OCc1ccccc1 (stereo not drawn) [z-FF-fmk, N-benzyloxycarbonyl-Phe-Phe-fluoromethylketone] (Cbz-Phe-Phe-CH2F; configuration not given here)
Primary cortical neurons [1]; [5]
  Survival: No

## CC(C)[C@H](CO)Nc1nc(Nc2cc(N)cc(Cl)c2)c2ncn(C(C)C)c2n1 [Aminopurvalanol]
Primary cortical neurons [1]; [5]
  Survival: No

## CC(C)CC(=O)N[C@H](C(=O)N[C@H](C(=O)N[C@@H](CC(C)C)[C@@H](O)CC(=O)N[C@@H](C)C(=O)N[C@@H](CC(C)C)[C@@H](O)CC(=O)O)C(C)C)C(C)C [Pepstatin] (Isovaleryl-VV[Sta]A[Sta]-OH)
Primary cortical neurons [1]; [5]
  Survival: No

## Ruthenium Red
Primary cortical neurons [1]; [5]
  Survival: No

## COC(=O)C[C@H](NC(=O)[C@H](C)NC(=O)[C@@H](NC(=O)[C@H](CC(=O)OC)NC(=O)[C@@H](NC(=O)c1ccc2ccccc2n1)C(C)C)C(C)C)C(=O)COc1c(F)cccc1F [Q-VDVAD-OPH, Quinolinylcarnonyl-L-Valinyl-L-Aspartyl (methyl ester)-X-Vanilyl-L-Alaninyl-L-Aspartyl (methyl ester) 2,6-difluorophenyl ester] (Quinaldoyl-VD(OMe)VA-X1)
[2]
  inhibition of VDVAD-AMC cleavage by recombinant caspase-2: blocked
[4]; single i.p. dose before ischemia, 48 hours, mean ±SEM
  infarct volume (% damage in the lesioned ipsilateral hemisphere): 5.7±2.3%
[4]; single i.p. dose before the ischemic onset, 48 hours after ischemia, vs ischemic control
  reduction in infarct volume: 74%
[4]; single i.p. dose, 48 hours
  animals (of the 12 studied) with a very marked smaller infarct: 8
  mean infarct of the four other animals: 16.5±1.32%
  median infarct of the 8 animals with a very marked smaller infarct: 0.5%
[4]; single i.p. dose, 48 hrs after ischemia
  animals that exhibited no infarct: 8
Primary cortical neurons [1]
  survival / protection of SD-neurons against cell death (apoptosis hallmarks overall): promotes survival of cortical neurons

## C=C1[C@@H](O)[C@@H]2O[C@]3(CC[C@H](/C=C/[C@@H](C)[C@@H]4CC(C)=C[C@@]5(O[C@H](C[C@@](C)(O)C(=O)O)CC[C@H]5O)O4)O3)CC[C@H]2O[C@@H]1[C@@H](O)C[C@H](C)[C@H]1O[C@@]2(CCCCO2)CC[C@H]1C [Okadaic acid]
Primary cortical neurons [1]; [5]
  Survival: No

## CC1CNCCN1S(=O)(=O)c1cccc2cnccc12 (stereo not drawn) [H-7]
Primary cortical neurons [1]; [5]
  Survival: No
